Experimental data taken from patent US20080194585A1, “Fungicidal Pyrazine Derivatives” (priority 2005, published 2008).
Marks after values point to notes of the source that are not given here.

Assays:
Plasmopara viticola = experiment: Test D: grape downy mildew, spray after inoculation of grape seedlings; assay type: in vivo; conditions: 200 ppm
Source text: Upon removal, disease ratings were made. […] A dash (-) indicates no test results.

Phytophthora infestans = experiment: whole plant or invertebrate; assay type: in vivo; conditions: 200 ppm
Septoria tritici = experiment: Test J: wheat leaf blotch, preventive spray on wheat seedlings; assay type: in vivo
Source text: A dash (-) indicates no test results.

fusarium graminearium = experiment: Test I: wheat head scab, preventive spray on wheat seedlings; conditions: 200 ppm
Description: (the causal agent of wheat head scab) and incubated in a saturated atmosphere at 20° C. for 72 h, and then moved to a growth chamber at 22° C. for 5 days, after which disease ratings were made.

[1] = test system: Puccinia recondita f. sp. tritici; experiment: Test K: wheat leaf rust, preventive spray on wheat seedlings
Botrytis cinerea = experiment: Test E: tomato botrytis, preventive spray on tomato seedlings
Septoria nodorum = experiment: Test H: wheat glum blotch, preventive spray on wheat seedlings
Description: (the causal agent of wheat glum blotch) and incubated in a saturated atmosphere at 20° C. for 48 h, and then moved to a growth chamber at 22° C. for 5 days, after which disease ratings were made.

[2] = test system: Erysiphe graminis f. sp. tritici; experiment: Test L: wheat powdery mildew, preventive spray on wheat seedlings
Sclerotinia sclerotiorum = experiment: Test C: cucumber white mold, preventive spray on cucumber seedlings
Pythium aphanidermatum = experiment: Test A: bluegrass pythium blight, preventive spray on bluegrass seedlings; conditions: 200 ppm
Rhizoctonia oryzae = experiment: Test G: turf brown patch, preventive spray on creeping bent grass seedlings
Description: (the causal agent of turf brown patch) and incubated in a saturated atmosphere at 27° C. for 24 h, and then moved to a growth chamber at 27° C. for 5 days, after which disease ratings were made.

[3] = test system: Colletotrichum orbiculare; experiment: Test B: cucumber Colletotrichum anthracnose, preventive spray on cucumber seedlings

Compound	Test D disease control rating (Plasmopara viticola) [%]	Test F disease control rating (Phytophthora infestans) [%]	Test J disease control rating (Septoria tritici; 200 ppm) [%]	Test I disease control rating (fusarium graminearium) [%]	Test K disease control rating ([1]; 40 ppm (*))	Test E disease control rating (Botrytis cinerea; 40 ppm (*))	Test H disease control rating (Septoria nodorum; 40 ppm (*))	Test L disease control rating ([2]; 40 ppm (*))	Test C disease control rating (Sclerotinia sclerotiorum; 200 ppm) [%]	Test A disease control rating (Pythium aphanidermatum) [%]	Test G disease control rating (Rhizoctonia oryzae; 40 ppm (*))	Test B disease control rating ([3]; 40 ppm (*))	Test J disease control rating (Septoria tritici; 40 ppm (*))	Test K disease control rating ([1]; 200 ppm) [%]	Test E disease control rating (Botrytis cinerea; 200 ppm) [%]	Test H disease control rating (Septoria nodorum; 200 ppm) [%]	Test L disease control rating ([2]; 200 ppm) [%]	Test G disease control rating (Rhizoctonia oryzae; 200 ppm) [%]	Test B disease control rating ([3]; 200 ppm) [%]	Test C disease control rating (Sclerotinia sclerotiorum; 40 ppm (*))
CCC(C)Cn1c(-c2c(F)cccc2F)c(Cl)nc(-n2cnc(C#N)c2C#N)c1=O (stereo not drawn) [compound 67]	0	0	24	0	0* %	0* %	0* %	0* %	0	0	0* %	0* %								
CCC(C)Cn1c(-c2c(F)cccc2F)c(Cl)nc(-n2cnc(Cl)c2Cl)c1=O (stereo not drawn) [compound 68]	0	0		0	0* %	0* %	0* %	0* %	0	0	0* %	0* %	26* %							
CCc1nccn1-c1nc(Cl)c(-c2c(F)cccc2F)n(CC(C)CC)c1=O (stereo not drawn) [compound 70]	0	0		0	55* %	0* %	0* %	0* %	0	0	0* %	0* %	83* %							
CCCc1nccn1-c1nc(Cl)c(-c2c(F)cccc2F)n(CC(C)CC)c1=O (stereo not drawn) [compound 71]	0	0		0	68* %	0* %	0* %	0* %	0	0	30* %	0* %	64* %							
CCC(C)Cn1c(-c2c(F)cccc2F)c(Cl)nc(-n2ccnc2C(C)C)c1=O (stereo not drawn) [compound 72]	0	0		0	61* %	0* %	0* %	53* %	0	0	58* %	0* %	74* %							
CC(C)Cn1c(-c2ccc(C(C)(C)C)cc2)c(Cl)nc(-n2cccn2)c1=O [compound 74]	0	0		0	80* %	0* %	0* %	75* %	0	0	0* %	0* %	26* %							
CC(C)Cn1c(-c2ccc(C(C)(C)C)cc2)c(Cl)nc(-n2cncn2)c1=O [compound 75]	0	0		0	0* %	0* %	0* %	0* %	0	0	0* %	0* %	7* %							
CC(C)Cn1c(-c2ccc(C(F)(F)F)cc2)c(Cl)nc(-n2cncn2)c1=O [compound 76]	0	21		0	0* %	0* %	0* %	0* %	0	0	0* %	0* %	0* %							
CC(C)Cn1c(-c2ccc(OC(F)(F)F)cc2)c(Cl)nc(-n2cncn2)c1=O [compound 77]	0	0		0	0* %	0* %	0* %	0* %	0	0	0* %	0* %	0* %							
COC(=O)C(C)=NNc1nc(Cl)c(-c2c(F)cccc2F)n(CC(C)C)c1=O [compound 78]	0	0	91	0					0	0				0	0	0	0	0	0	
Cc1ccc(-c2c(Cl)nc(-n3cccn3)c(=O)n2CC(C)C)c(C)c1 [compound 80]	0	0	100	0						0				100	100	100	94	47	99	0* %
CCC(C)Cn1c(-c2c(F)cccc2F)c(Cl)nc(-n2ccc(C#N)n2)c1=O (stereo not drawn) [compound 81]	0	0		0	68* %	93* %	0* %	0* %	0	0	31* %	0* %	52* %							
CCC(C)Cn1c(-c2c(F)cccc2F)c(Cl)nc(-n2cccc2)c1=O (stereo not drawn) [compound 82]	0	0		0	68* %	0* %	73* %	0* %	0	0	0* %	0* %	5* %							
COc1cc(OC)c(-c2c(Cl)nc(-n3cccn3)c(=O)n2CC(C)C)c(OC)c1 [compound 86]	0	0	0	23					4	0				0	0	0	0	0	0	
CC(C)Cn1c(-c2c(F)cccc2C(F)(F)F)c(Cl)nc(-n2cccn2)c1=O [compound 87]	0	0	74	18					95	0				100	100	100	100	99	100	
CC(C)Cn1c(-c2ccc3c(c2)OCO3)c(Cl)nc(-n2cccn2)c1=O [compound 88]	0	24	100	0					99	0				97	100	99	0	16	52	
